Reference: patent US9944602B2, “Piperidinone herbicides” (E. I. DU PONT DE NEMOURS AND COMPANY, priority 2014, dated 2018)

Experiments:
Format in all cases: in vivo
[1] = test system: barnyardgrass (Echinochloa crus-galli); assay: Test A preemergence barnyardgrass; settings: 0 to 100 scale, 0 no effect, 100 complete control
Outline: (§1)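 Greenhouse pot test: chemicals formulated with surfactant in non-phytotoxic solvent, sprayed on soil at seeding (pre) or on 1–2 leaf seedlings of 2–10 cm (post). Rating ~10 d later, visual, 0 = no effect to 100 = complete control, relative to untreated controls.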

kochia (Kochia scoparia) [2] = assay: Test A preemergence kochia; settings: 0 to 100 scale, 0 no effect, 100 complete control
Outline: as §1

[3] = test system: ragweed (common ragweed, Ambrosia elatior); assay: Test A preemergence ragweed; settings: 0 to 100 scale, 0 no effect, 100 complete control
Outline: as §1

[4] = test system: ryegrass, Italian (Italian ryegrass, Lolium multiflorum); assay: Test A preemergence ryegrass, Italian; settings: 0 to 100 scale, 0 no effect, 100 complete control
Outline: as §1

[5] = test system: foxtail, giant (giant foxtail, Setaria faberii); assay: Test A preemergence foxtail, giant; settings: 0 to 100 scale, 0 no effect, 100 complete control
Outline: as §1

[6] = test system: pigweed (Amaranthus retroflexus); assay: Test A preemergence pigweed; settings: 0 to 100 scale, 0 no effect, 100 complete control
Outline: as §1

[7] = test system: barnyardgrass (Echinochloa crus-galli); assay: Test A postemergence barnyardgrass; settings: 0 to 100 scale, 0 is no effect, 100 is complete control
Outline: as §1

kochia (Kochia scoparia) [8] = assay: Test A postemergence kochia; settings: 0 to 100 scale, 0 is no effect, 100 is complete control
Outline: as §1

[9] = test system: ragweed (common ragweed, Ambrosia elatior); assay: Test A postemergence ragweed; settings: 0 to 100 scale, 0 is no effect, 100 is complete control
Outline: as §1

[10] = test system: ryegrass, Italian (Italian ryegrass, Lolium multiflorum); assay: Test A postemergence ryegrass, Italian; settings: 0 to 100 scale, 0 is no effect, 100 is complete control
Outline: as §1

[11] = test system: foxtail, giant (giant foxtail, Setaria faberii); assay: Test A postemergence foxtail, giant; settings: 0 to 100 scale, 0 is no effect, 100 is complete control
Outline: as §1

[12] = test system: pigweed (Amaranthus retroflexus); assay: Test A postemergence pigweed; settings: 0 to 100 scale, 0 is no effect, 100 is complete control
Outline: as §1

[13] = test system: wheat (Triticum aestivum); assay: Test A postemergence wheat; settings: 0 to 100 scale, 0 is no effect, 100 is complete control
Outline: as §1

corn (Zea mays) = assay: Test A postemergence corn; settings: 0 to 100 scale, 0 is no effect, 100 is complete control
Outline: as §1

[14] = test system: blackgrass (Alopecurus myosuroides); assay: Test A postemergence blackgrass; settings: 0 to 100 scale, 0 is no effect, 100 is complete control
Outline: as §1

[15] = test system: galium (catchweed bedstraw, Galium aparine); assay: Test A postemergence galium; settings: 0 to 100 scale, 0 is no effect, 100 is complete control
Outline: as §1

rice (Oryza sativa) = assay: Test B flooded paddy test rice; settings: Table B, Flood, 250 g ai/ha, scale 0 to 100
Outline: (§2)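 Visual injury relative to controls was scored after 13 to 15 d in the greenhouse. Treatment was by adding compound straight to flood water 3 cm deep, maintained for the whole test, on plants at the 2-leaf stage.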

[16] = test system: sedge, umbrella (small-flower umbrella sedge, Cyperus difformis); assay: Test B flooded paddy test sedge, umbrella; settings: Table B, Flood, 250 g ai/ha, scale 0 to 100
Outline: as §2

[17] = test system: ducksalad (Heteranthera limosa); assay: Test B flooded paddy test ducksalad; settings: Table B, Flood, 250 g ai/ha, scale 0 to 100
Outline: as §2

[18] = test system: barnyardgrass (Echinochloa crus-galli); assay: Test B flooded paddy test barnyardgrass; settings: Table B, Flood, 250 g ai/ha, scale 0 to 100
Outline: as §2

Row | SMILES | Barnyardgrass plant response rating ([1]; 125 g ai/ha) | Barnyardgrass plant response rating ([1]; 500 g ai/ha) | Kochia plant response rating (kochia (Kochia scoparia) [2]; 125 g ai/ha) | Kochia plant response rating (kochia (Kochia scoparia) [2]; 500 g ai/ha) | Ragweed plant response rating ([3]; 125 g ai/ha) | Ragweed plant response rating ([3]; 500 g ai/ha) | Ryegrass, Italian plant response rating ([4]; 125 g ai/ha) | Ryegrass, Italian plant response rating ([4]; 500 g ai/ha) | Foxtail, Giant plant response rating ([5]; 125 g ai/ha) | Foxtail, Giant plant response rating ([5]; 500 g ai/ha) | Pigweed plant response rating ([6]; 125 g ai/ha) | Pigweed plant response rating ([6]; 500 g ai/ha) | Plant response rating, Barnyardgrass ([7]; 125 g ai/ha) | Plant response rating, Barnyardgrass ([7]; 500 g ai/ha) | Plant response rating, Kochia (kochia (Kochia scoparia) [8]; 125 g ai/ha) | Plant response rating, Kochia (kochia (Kochia scoparia) [8]; 500 g ai/ha) | Plant response rating, Ragweed ([9]; 125 g ai/ha) | Plant response rating, Ragweed ([9]; 500 g ai/ha) | Plant response rating, Ryegrass, Italian ([10]; 125 g ai/ha) | Plant response rating, Ryegrass, Italian ([10]; 500 g ai/ha) | further results
1 | O=C(Nc1ccccc1C(F)(F)F)C1C(=O)N(C2CC2)CCC1c1ccc(F)cc1 (stereo not drawn) [Compound 50] | 0 | 0 | 0 | 0 | 0 | 0 | 0 | 0 | 0 | 40 | 0 | 0 | 0 | 0 | 0 | 0 | 0 | 0 | 0 | 0 | Plant response rating, Foxtail, Giant ([11]; 125 g ai/ha): 0; Plant response rating, Foxtail, Giant ([11]; 500 g ai/ha): 0; Plant response rating, Pigweed ([12]; 125 g ai/ha): 0; Plant response rating, Pigweed ([12]; 500 g ai/ha): 0; Plant response rating, Wheat ([13]; 125 g ai/ha): 0; Plant response rating, Wheat ([13]; 500 g ai/ha): 0; Plant response rating, Corn (corn (Zea mays); 125 g ai/ha): 0; Plant response rating, Corn (corn (Zea mays); 500 g ai/ha): 0; Plant response rating, Blackgrass ([14]; 125 g ai/ha): 0; Plant response rating, Blackgrass ([14]; 500 g ai/ha): 0; Plant response rating, Galium ([15]; 125 g ai/ha): 0; Plant response rating, Galium ([15]; 500 g ai/ha): 0; Plant response rating (rice (Oryza sativa)): 0; Plant response rating [16]: 0; Plant response rating [17]: 0; Plant response rating [18]: 0
2 | O=C(Nc1ccccc1C(F)(F)F)C1C(=O)N(Cc2ccccc2)CCC1c1ccc(F)cc1 (stereo not drawn) [Compound 51] | 0 | 0 | 0 | 0 | 0 | 0 | 0 | 0 | 0 | 0 | 0 | 0 | 0 | 0 | 0 | 0 | 0 | 0 | 0 | 0 | Plant response rating, Foxtail, Giant ([11]; 125 g ai/ha): 0; Plant response rating, Foxtail, Giant ([11]; 500 g ai/ha): 0; Plant response rating, Pigweed ([12]; 125 g ai/ha): 0; Plant response rating, Pigweed ([12]; 500 g ai/ha): 0; Plant response rating, Wheat ([13]; 125 g ai/ha): 0; Plant response rating, Wheat ([13]; 500 g ai/ha): 0; Plant response rating, Corn (corn (Zea mays); 125 g ai/ha): 0; Plant response rating, Corn (corn (Zea mays); 500 g ai/ha): 0; Plant response rating, Blackgrass ([14]; 125 g ai/ha): 0; Plant response rating, Blackgrass ([14]; 500 g ai/ha): 0; Plant response rating, Galium ([15]; 125 g ai/ha): 0; Plant response rating, Galium ([15]; 500 g ai/ha): 0; Plant response rating (rice (Oryza sativa)): 0; Plant response rating [16]: 0; Plant response rating [17]: 0; Plant response rating [18]: 0
3 | O=C1NCC[C@@H](c2ccc(C(F)(F)F)cc2)[C@@H]1C(=O)Nc1ccc(F)c(F)c1F [Compound 55] | 0 | 0 | 0 | 0 | 0 | 0 | 0 | 0 | 0 | 0 | 0 | 0 | 0 | 0 | 0 | 0 | 0 | 0 | 0 | 0 | Plant response rating, Foxtail, Giant ([11]; 125 g ai/ha): 0; Plant response rating, Foxtail, Giant ([11]; 500 g ai/ha): 0; Plant response rating, Pigweed ([12]; 125 g ai/ha): 0; Plant response rating, Pigweed ([12]; 500 g ai/ha): 0; Plant response rating, Wheat ([13]; 125 g ai/ha): 0; Plant response rating, Wheat ([13]; 500 g ai/ha): 0; Plant response rating, Corn (corn (Zea mays); 125 g ai/ha): 0; Plant response rating, Corn (corn (Zea mays); 500 g ai/ha): 0; Plant response rating, Blackgrass ([14]; 125 g ai/ha): 0; Plant response rating, Blackgrass ([14]; 500 g ai/ha): 0; Plant response rating, Galium ([15]; 125 g ai/ha): 0; Plant response rating, Galium ([15]; 500 g ai/ha): 0; Plant response rating (rice (Oryza sativa)): 0; Plant response rating [16]: 0; Plant response rating [17]: 0; Plant response rating [18]: 0
